According to patent publication US11576896B2, “Benzoselenophene-based compounds, pharmaceutical compositions and antibody-drug conjugates including the same” (AIMED BIO INC., priority 2020, dated 2023):
Like-named read-outs stand apart in the source and are kept apart here.

Tests used:
[1] = test system: Gastric cancer cells NCI-N87; assay: High-throughput screening (HTS) cytotoxicity, ATPlite assay; assay type: cell-based; set-up: AUC (area under the curve): unit not given beside the values; settings: NCI-N87 (HER+), 384-well, 72 hours; for IC50: Homo sapiens
Protocol: (§1) The present inventors used an HTS system capable of screening various drugs or substances at once to further screen cytotoxicity of DS-26 (Example 1) and DS-28 (Comparative Example 1). Gastric cancer cells NCI-N87 and ovarian cancer cells SK-OV-3 were separately seeded in a 384-well and treated with drugs at various concentrations and cultured for 72 hours. Then, the degree of cell growth was measured by ATPlite assay. The measured data were converted into IC50 using GraphPad Prism 5.0 software, and area under the curve (AUC) was converted to analyze the titer of each drug.
(§2) Also, DS-26 has stable solubility and stability in terms of chemical structure and thus considered worthy to be developed into drugs.

[2] = test system: ovarian cancer cells SK-OV-3; assay: as above; assay type: cell-based; set-up: AUC (area under the curve): unit not given beside the values; settings: for IC50: Homo sapiens
Protocol: as §1, §2

[3] = SK-OV-3 (HER+), 384-well, 72 hours, ATPlite, read-out: IC50
[4] = SK-OV-3 (HER+), 384-well, 72 hours, ATPlite

Row | SMILES | IC50 [1] | AUC (area under the curve) [1] | IC50 [2, 3] | AUC (area under the curve) [2, 4] | IC50 ([2]; text summary of Table 1 and FIGS. 2A-3B, cell line not specified (NCI-N87 and SK-OV-3 tested), read-out: IC50 (text summary of HTS result))
1 | COCCOCCOCCOCCOc1cc2[se]c(C(=O)N3C[C@@H](CCl)c4c3cc(O)c3ccc(OC)cc43)cc2cc1NC(C)=O [DS-28, reference compound] | 5.86 nM | 689 | 1.68 nM | 613 | 
2 | COc1ccc2c(O)cc3c(c2c1)[C@H](CCl)CN3C(=O)c1cc2cc(NC(=O)CCN(C)C)ccc2[se]1 [DS-26, (S)—N-(2-(1-(chloromethyl)-5-hydroxy-8-methoxy-2,3-dihydro-1H-benzo[e]indole-3-carbonyl)benzo[b]selenophen-5-yl)-3-(dimethylamino)propanamide] | 0.00555 nM | 477 | 0.042 nM | 481 | 0.04 to 0.05 nM
